# Results taken from ChEMBL document CHEMBL1201861, “Genomics of Drug Sensitity in Cancer screening data, Wellcome Trust Sanger Institute”.
# pIC50: −log10 of the molar value.
# Legend:
# Assay in all cases: cells
# Type in all cases: functional, cell-based, Homo sapiens
# HCC1599 = settings: Homo sapiens, HCC1599;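 note: growth inhibition of HCC1599 cells, read out in a cell viability assay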
# Description: SANGER: Inhibition of human HCC1599 cell growth in a cell viability assay.
# IST-SL2 = settings: Homo sapiens, IST-SL2;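 note: growth inhibition of human IST-SL2 cells, read out by a cell viability assay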
# Description: SANGER: Inhibition of human IST-SL2 cell growth in a cell viability assay.
# LC-1F = settings: Homo sapiens, LC-1F;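 note: growth inhibition of human LC-1F cells, read out with a cell viability assay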
# Description: SANGER: Inhibition of human LC-1F cell growth in a cell viability assay.
# MOLT-13 = settings: Homo sapiens, MOLT-13;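 note: IC50 for suppression of MOLT-13 cell growth, read out with a cell viability assay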
# Description: SANGER: Inhibition of human MOLT-13 cell growth in a cell viability assay.
# NALM-6 = settings: Homo sapiens, NALM-6;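 note: growth inhibition of NALM-6 cells, read out with a cell viability assay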
# Description: SANGER: Inhibition of human NALM-6 cell growth in a cell viability assay.
# NCI-H2196 = settings: Homo sapiens, NCI-H2196;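 note: cell viability assay used as the readout of growth inhibition in NCI-H2196 cells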
# Description: SANGER: Inhibition of human NCI-H2196 cell growth in a cell viability assay.
# NCI-H524 = settings: Homo sapiens, NCI-H524;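 note: growth inhibition of human NCI-H524 cells, read out through a cell viability assay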
# Description: SANGER: Inhibition of human NCI-H524 cell growth in a cell viability assay.
# RPMI-6666 = settings: Homo sapiens, RPMI-6666
# Description: SANGER: Inhibition of human RPMI-6666 cell growth in a cell viability assay.
# BL-41 = settings: Homo sapiens, BL-41;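 note: growth inhibition of human BL-41 cells, read out with a cell viability assay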
# Description: SANGER: Inhibition of human BL-41 cell growth in a cell viability assay.
# CA46 = settings: Homo sapiens, CA46;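 note: growth inhibition of human CA46 cells, read out by a cell viability assay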
# Description: SANGER: Inhibition of human CA46 cell growth in a cell viability assay.
# TE-15 = settings: Homo sapiens, TE-15;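 note: cell viability readout of growth inhibition in TE-15 cells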
# Description: SANGER: Inhibition of human TE-15 cell growth in a cell viability assay.
# WSU-NHL = settings: Homo sapiens, WSU-NHL;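 note: growth inhibition of human WSU-NHL cells, read out with a cell viability assay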
# Description: SANGER: Inhibition of human WSU-NHL cell growth in a cell viability assay.
# COLO-741 = settings: Homo sapiens, COLO-741
# Description: SANGER: Inhibition of human COLO-741 cell growth in a cell viability assay.
# CaR-1 = settings: Homo sapiens, CaR-1;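 note: growth inhibition of human CaR-1 cancer cells, read out with a cell viability assay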
# Description: SANGER: Inhibition of human CaR-1 cell growth in a cell viability assay.
# DOK = settings: Homo sapiens, DOK;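 note: cell viability assay read-out, values reflect inhibition of cell growth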
# Description: SANGER: Inhibition of human DOK cell growth in a cell viability assay.
# DoTc2-4510 = settings: Homo sapiens, DoTc2-4510
# EGI-1 = settings: Homo sapiens, EGI-1;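 note: cell viability readout used to gauge growth inhibition of EGI-1 cells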
# Description: SANGER: Inhibition of human EGI-1 cell growth in a cell viability assay.
# FTC-133 = settings: Homo sapiens, FTC-133
# HOP-92 = settings: Homo sapiens, HOP-92;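 note: cell viability readout, with IC50 reflecting inhibition of HOP-92 cell growth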
# Description: SANGER: Inhibition of human HOP-92 cell growth in a cell viability assay.
# Huh-7 = settings: Homo sapiens, Huh-7;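 note: HuH-7 cell growth inhibition, read out with a cell viability assay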
# Description: SANGER: Inhibition of human HuH-7 cell growth in a cell viability assay.
# KP-N-YN = settings: Homo sapiens, KP-N-YN;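 note: growth inhibition of KP-N-YN cells, read out with a cell viability assay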
# Description: SANGER: Inhibition of human KP-N-YN cell growth in a cell viability assay.
# KU-19-19 = settings: Homo sapiens, KU-19-19
# Description: SANGER: Inhibition of human KU-19-19 cell growth in a cell viability assay.
# KYSE-270 = settings: Homo sapiens, KYSE-270;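 note: cell growth inhibition measured with a viability assay in the human KYSE-270 line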
# Description: SANGER: Inhibition of human KYSE-270 cell growth in a cell viability assay.
# LCLC-97TM1 = settings: Homo sapiens, LCLC-97TM1;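 note: cell viability assay measuring growth inhibition of human LCLC-97TM1 cells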
# Description: SANGER: Inhibition of human LCLC-97TM1 cell growth in a cell viability assay.
# MDA-MB-231 = settings: Homo sapiens, MDA-MB-231
# Description: SANGER: Inhibition of human MDA-MB-231 cell growth in a cell viability assay.
# MDA-MB-415 = settings: Homo sapiens, MDA-MB-415
# MFE-280 = settings: Homo sapiens, MFE-280;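 note: growth inhibition of MFE-280 cells, determined with a cell viability readout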
# Description: SANGER: Inhibition of human MFE-280 cell growth in a cell viability assay.
# NCI-H1573 = settings: Homo sapiens, NCI-H1573;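 note: growth inhibition of NCI-H1573 cells, read out with a cell viability assay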
# Description: SANGER: Inhibition of human NCI-H1573 cell growth in a cell viability assay.
# NCI-H1623 = settings: Homo sapiens, NCI-H1623;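 note: cell viability assay used as the read-out for growth inhibition of NCI-H1623 cells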
# Description: SANGER: Inhibition of human NCI-H1623 cell growth in a cell viability assay.
# NCI-H1755 = settings: Homo sapiens, NCI-H1755;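 note: cell viability readout used to measure growth inhibition of NCI-H1755 cells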
# Description: SANGER: Inhibition of human NCI-H1755 cell growth in a cell viability assay.
# NCI-H1993 = settings: Homo sapiens, NCI-H1993;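 note: growth inhibition of the cancer cell line, assessed with a cell viability assay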
# Description: SANGER: Inhibition of human NCI-H1993 cell growth in a cell viability assay.
# NCI-H2030 = settings: Homo sapiens, NCI-H2030;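 note: growth inhibition of human NCI-H2030 cells, read out by a cell viability assay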
# Description: SANGER: Inhibition of human NCI-H2030 cell growth in a cell viability assay.
# NCI-H441 = settings: Homo sapiens, NCI-H441;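 note: growth inhibition of NCI-H441 cells, read out with a cell viability assay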
# Description: SANGER: Inhibition of human NCI-H441 cell growth in a cell viability assay.
# OAW-42 = settings: Homo sapiens, OAW-42;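 note: growth inhibition of OAW-42 cells, read out with a cell viability assay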
# Description: SANGER: Inhibition of human OAW-42 cell growth in a cell viability assay.
# OE33 = settings: Homo sapiens, OE33;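 note: growth inhibition of human OE33 cells, measured by a cell viability assay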
# Description: SANGER: Inhibition of human OE33 cell growth in a cell viability assay.
# S-117 = settings: Homo sapiens, S-117
# Description: SANGER: Inhibition of human S-117 cell growth in a cell viability assay.
# SK-MES-1 = settings: Homo sapiens, SK-MES-1;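 note: growth inhibition of human SK-MES-1 cells, read out with a cell viability assay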
# Description: SANGER: Inhibition of human SK-MES-1 cell growth in a cell viability assay.
# SW13 = settings: Homo sapiens, SW13;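 note: IC50 is inhibition of SW13 cell growth, read out with a cell viability assay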
# Description: SANGER: Inhibition of human SW13 cell growth in a cell viability assay.
# SAOS-2 = settings: Homo sapiens, SAOS-2;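 note: growth inhibition of human Saos-2 cells determined by a cell viability assay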
# Description: SANGER: Inhibition of human Saos-2 cell growth in a cell viability assay.
# 8305C = settings: Homo sapiens, 8305C
# Description: SANGER: Inhibition of human 8305C cell growth in a cell viability assay.
# A2058 = settings: Homo sapiens, A2058;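 note: reduction of A2058 cell growth, read out with a viability assay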
# Description: SANGER: Inhibition of human A2058 cell growth in a cell viability assay.
# BFTC-905 = settings: Homo sapiens, BFTC-905
# Description: SANGER: Inhibition of human BFTC-905 cell growth in a cell viability assay.
# BPH-1 = settings: Homo sapiens, BPH-1;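 note: cell viability assay measuring growth inhibition of human BPH-1 cells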
# Description: SANGER: Inhibition of human BPH-1 cell growth in a cell viability assay.
# BT-20 = settings: Homo sapiens, BT-20;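 note: cell viability assay measuring suppression of growth in human BT-20 cells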
# Description: SANGER: Inhibition of human BT-20 cell growth in a cell viability assay.
# TYK-nu = settings: Homo sapiens, TYK-nu;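 note: growth inhibition of human TYK-nu cells, read out by a cell viability assay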
# Description: SANGER: Inhibition of human TYK-nu cell growth in a cell viability assay.
# CFPAC-1 = settings: Homo sapiens, CFPAC-1;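 note: cell viability readout used to gauge suppression of CFPAC-1 cell proliferation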
# Description: SANGER: Inhibition of human CFPAC-1 cell growth in a cell viability assay.
# COLO-679 = settings: Homo sapiens, COLO-679
# Description: SANGER: Inhibition of human COLO-679 cell growth in a cell viability assay.
# NCI-H2227 = settings: Homo sapiens, NCI-H2227;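 note: growth inhibition of the human cell line, read out with a cell viability assay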
# Description: SANGER: Inhibition of human NCI-H2227 cell growth in a cell viability assay.
smiles,measurement,setting,value
COc1cc2ncn(-c3cc(OCc4ccccc4C(F)(F)F)c(C(N)=O)s3)c2cc1OC [GW843682X],pIC50,HCC1599,7.73
same,pIC50,IST-SL2,6.95
same,pIC50,LC-1F,< 6.59
same,pIC50,MOLT-13,7.92
same,pIC50,NALM-6,7.61
same,pIC50,NCI-H2196,< 6.59
same,pIC50,NCI-H524,7.18
same,pIC50,RPMI-6666,7.08
same,pIC50,BL-41,7.96
same,pIC50,CA46,< 6.59
same,pIC50,TE-15,7.97
same,pIC50,WSU-NHL,< 6.59
CS(=O)(=O)c1ccc(C(=O)Nc2ccc(Cl)c(-c3ccccn3)c2)c(Cl)c1 [VISMODEGIB],pIC50,COLO-741,< 5.00
same,pIC50,CaR-1,< 5.00
same,pIC50,DOK,< 5.00
same,pIC50,DoTc2-4510,< 5.00
same,pIC50,EGI-1,< 5.00
same,pIC50,FTC-133,< 5.00
same,pIC50,HOP-92,< 5.00
same,pIC50,Huh-7,< 5.00
same,pIC50,KP-N-YN,< 5.00
same,pIC50,KU-19-19,< 5.00
same,pIC50,KYSE-270,< 5.00
same,pIC50,LCLC-97TM1,< 5.00
same,pIC50,MDA-MB-231,< 5.00
same,pIC50,MDA-MB-415,< 5.00
same,pIC50,MFE-280,< 5.00
same,pIC50,NCI-H1573,< 5.00
same,pIC50,NCI-H1623,< 5.00
same,pIC50,NCI-H1755,< 5.00
same,pIC50,NCI-H1993,< 5.00
same,pIC50,NCI-H2030,< 5.00
same,pIC50,NCI-H441,< 5.00
same,pIC50,OAW-42,< 5.00
same,pIC50,OE33,< 5.00
same,pIC50,S-117,< 5.00
same,pIC50,SK-MES-1,< 5.00
same,pIC50,SW13,< 5.00
same,pIC50,SAOS-2,< 5.00
same,pIC50,8305C,< 5.00
same,pIC50,A2058,< 5.00
same,pIC50,BFTC-905,< 5.00
same,pIC50,BPH-1,< 5.00
same,pIC50,BT-20,< 5.00
same,pIC50,TYK-nu,< 5.00
same,pIC50,CFPAC-1,< 5.00
same,pIC50,COLO-679,< 5.00
CC(=O)O[C@H]1C(=O)[C@@]2(C)[C@H]([C@H](OC(=O)c3ccccc3)[C@]3(O)C[C@H](OC(=O)[C@H](O)[C@@H](NC(=O)c4ccccc4)c4ccccc4)C(C)=C1C3(C)C)[C@]1(OC(C)=O)CO[C@@H]1C[C@@H]2O [PACLITAXEL],pIC50,HCC1599,7.69
same,pIC50,IST-SL2,7.37
same,pIC50,LC-1F,< 6.99
same,pIC50,MOLT-13,7.79
same,pIC50,NALM-6,7.92
same,pIC50,NCI-H2196,< 6.99
same,pIC50,NCI-H524,7.45
same,pIC50,RPMI-6666,7.67
same,pIC50,BL-41,8.03
same,pIC50,CA46,< 6.99
same,pIC50,TE-15,9.54
same,pIC50,WSU-NHL,< 6.99
O=C(O)c1ccc(-c2c[nH]c3ncc(-c4ccccc4)cc23)cc1C1CCCC1 [GSK-650394],pIC50,COLO-741,< 4.80
same,pIC50,CaR-1,< 4.80
same,pIC50,DOK,< 4.80
same,pIC50,DoTc2-4510,< 4.80
same,pIC50,EGI-1,< 4.80
same,pIC50,FTC-133,< 4.80
same,pIC50,HCC1599,< 4.80
same,pIC50,HOP-92,< 4.80
same,pIC50,Huh-7,< 4.80
same,pIC50,IST-SL2,5.32
same,pIC50,KP-N-YN,4.80
same,pIC50,KU-19-19,< 4.80
same,pIC50,KYSE-270,5.62
same,pIC50,LC-1F,< 4.80
same,pIC50,LCLC-97TM1,5.86
same,pIC50,MDA-MB-231,< 4.80
same,pIC50,MDA-MB-415,< 4.80
same,pIC50,MFE-280,< 4.80
same,pIC50,NALM-6,5.01
same,pIC50,NCI-H1573,< 4.80
same,pIC50,NCI-H1623,< 4.80
same,pIC50,NCI-H1755,< 4.80
same,pIC50,NCI-H1993,< 4.80
same,pIC50,NCI-H2030,< 4.80
same,pIC50,NCI-H2196,< 4.80
same,pIC50,NCI-H2227,< 4.80
same,pIC50,NCI-H441,< 4.80
same,pIC50,NCI-H524,< 4.80
same,pIC50,OAW-42,< 4.80
same,pIC50,OE33,5.30
same,pIC50,RPMI-6666,< 4.80
same,pIC50,S-117,< 4.80
same,pIC50,SK-MES-1,4.80
same,pIC50,SW13,< 4.80
same,pIC50,SAOS-2,< 4.80
same,pIC50,8305C,< 4.80
same,pIC50,A2058,4.87
same,pIC50,BFTC-905,6.11
same,pIC50,BL-41,< 4.80
same,pIC50,BPH-1,< 4.80
same,pIC50,BT-20,< 4.80
same,pIC50,CA46,< 4.80
same,pIC50,TE-15,5.59
same,pIC50,TYK-nu,< 4.80
same,pIC50,WSU-NHL,< 4.80
same,pIC50,COLO-679,5.28
COc1cc(-c2nn([C@H]3CC[C@H](N4CCN(C(C)=O)CC4)CC3)c3ncnc(N)c23)ccc1NC(=O)c1cc2ccccc2n1C,pIC50,HCC1599,< 5.29
same,pIC50,IST-SL2,5.93
same,pIC50,LC-1F,< 5.29
same,pIC50,MOLT-13,< 5.29
same,pIC50,NALM-6,5.65
same,pIC50,NCI-H2196,< 5.29
same,pIC50,NCI-H524,< 5.29
same,pIC50,RPMI-6666,5.80
same,pIC50,BL-41,5.77
same,pIC50,CA46,< 5.29
same,pIC50,TE-15,6.55
same,pIC50,WSU-NHL,< 5.29
CC(C)c1ccccc1Cc1cc(C(=O)Nc2ccc(S(=O)(=O)c3ccccc3C(C)(C)C)cc2)c(O)c(O)c1O,pIC50,COLO-741,5.86
same,pIC50,CaR-1,5.23
same,pIC50,DOK,5.87
same,pIC50,DoTc2-4510,5.83
same,pIC50,EGI-1,5.90
same,pIC50,FTC-133,6.22
same,pIC50,HOP-92,6.45
same,pIC50,Huh-7,7.48
same,pIC50,KP-N-YN,4.80
same,pIC50,KU-19-19,6.36
same,pIC50,KYSE-270,5.97
same,pIC50,LCLC-97TM1,6.04
same,pIC50,MDA-MB-231,6.97
same,pIC50,MFE-280,5.34
same,pIC50,NCI-H1573,5.15
same,pIC50,NCI-H1623,6.23
same,pIC50,NCI-H1755,5.79
same,pIC50,NCI-H1993,5.98
same,pIC50,NCI-H2030,5.55
same,pIC50,NCI-H441,5.76
same,pIC50,OAW-42,6.31
same,pIC50,OE33,6.16
same,pIC50,S-117,6.67
same,pIC50,SK-MES-1,5.98
same,pIC50,SW13,6.69
same,pIC50,SAOS-2,6.21
same,pIC50,8305C,5.41
same,pIC50,A2058,6.44
same,pIC50,BFTC-905,6.15
same,pIC50,BPH-1,6.54
same,pIC50,BT-20,6.18
same,pIC50,TYK-nu,6.49
same,pIC50,CFPAC-1,6.28
same,pIC50,COLO-679,6.63
